Assay results reported in article PMC7000758 (Nature Communications, 2020).
Several values for one entry are separate records, joined by “and”; a condition that tells them apart may be missing. Equal entries are not always repeated. Entries after “also recorded” stand apart in the source; their conditions may differ. Where two headings read alike, the source gives them in different places.

Key:
[1] = design: method as in rabbit PK study previously conducted by the authors; details: rabbit; ref rabbit PK study previously conducted by the authors; cited from earlier work
[2] = tested on: choroidal NV at Bruch's membrane rupture sites; test: Mouse model of laser-induced choroidal NV (type 2); format: in vivo, C57BL/6 mice; details: for CNVsize: individual eyes
Protocol: Mice were treated in accordance with the Association for Research in Vision and Ophthalmology Guidelines on the care and use of animals in research. All protocols were approved by the Animal Care and Use Committee of the Johns Hopkins University School of Medicine. Laser photocoagulation-induced rupture of Bruch’s membrane was used to generate choroidal NV[34]. […] One week after rupture of Bruch’s membrane, mice were euthanized, eyes were removed, anterior segments, retinas, and vitreous was removed, and eye cups were stained with fluorescein isothiocyanate (FITC)-conjugated GSA (Vector Laboratories, Burlingame, CA), and flat mounted. Flat mounts were examined by fluorescence microscopy and the area of each choroidal NV was measured by image analysis with Image-Pro Plus software (Media Cybernetics, Silver Spring, MD) by an observer masked with respect to experimental groups. The three areas obtained in each eye were averaged to give a single experimental value.

[3] = Cataract after intravitreous injection in mice; format: in vivo, C57BL/6 mice; details: intravitreous doses of free sunitinib >0.5 µg
Excerpt: The murine model of laser-induced rupture of Bruch’s membrane results in choroidal NV that is similar to type 2 choroidal NV in patients with NVAMD, because the new vessels originate from the choroid and penetrate through Bruch’s membrane and the RPE into the subretinal space. Studies in this model helped to implicate VEGF as a critical stimulus for NVAMD[4] and predicted the clinical benefits seen with aflibercept, a recombinant VEGF-neutralizing protein commonly used to treat patients with NVAMD[6],[35].

[4] = Pharmacokinetic study in mice (drug remaining in eye, LC-MS); format: in vivo, C57BL/6N mice; details: for Remaining Drug (Normalized against T0) (%): mouse eye, intravitreous 1 µg sunitinib or equivalent
Excerpt: Twenty male or female 5–7-week-old C57BL/6N mice were anesthetized and the pupils were dilated as previously described. […] […], 5 mice from each condition were euthanized and the whole globes were collected and transferred to a bioanalytical facility for measurement of drug levels by liquid chromatography–mass spectrometry (LC–MS). The amount of drug remaining in the eye at 30 days was compared to and presented as a percentage of the initial dose injected in the eye.

[5] = for Average release (%): Fig 1b dissolution of suspension
Protocol: At selected time points, 3 ml of the release medium was collected and replaced with 3 ml fresh release medium.

[6] = Melanin binding of sunitinib in vitro; format: in vitro ADME, sepia officialis; details: for percentage of melanin-bound sunitinib: 10 mg melanin in PBS, 1 h
[7] = cited from earlier work
[8] = tested on: vascular leakage (vitreous albumin); test: Measurement of albumin in vitreous samples (ELISA); format: in vivo, rho/VEGF mice
Excerpt: Vitreous samples were obtained by inserting a micropipette into the vitreous cavity and gently aspirating the vitreous. Using the manufacturer’s instructions, a mouse albumin ELISA kit (ab108791; […] The plate wa read at 450 and 570 nm with SpectraMax Plus (Molecular Devices, San Jose, CA).

subretinal NV = test: Subretinal NV in rho/VEGF transgenic mice (type 3 choroidal NV); format: in vivo; details: for Mean area of sunretinal NV per retina: Fig 4b, 40 µg at P14, individual retinas
Protocol: At P21, P28, P35, or P42, mice were euthanized and retinas were stained with FITC-labeled GSA lectin and flat mounted with photoreceptors facing up. Retinal flat mounts were examined by fluorescence microscopy and the area of subretinal NV was measured by image analysis by a masked observer.

rhodopsin kinase (GRK-1) = test: Photoreceptor survival: rhodopsin kinase (GRK-1)/actin immunoblot of retinal homogenates; format: in vivo, rho/VEGF mice
Protocol: At P42, some mice were euthanized and eyes were marked at the 12:00 pole and frozen in embedding compound. […] At […] five mice were euthanized and retinas were dissected from each eye and homogenized in 150 μl lysis buffer (Abcam, Cambridge, MA) followed by high speed centrifuge (16,000 × g, 15 min). Supernatants were collected in pre-chilled eppendorf tubes. […] Membranes were probed with anti-GRK1 antibody (1:1000; ThermoFischer Scientific, Catalog no. PA5-13725, Lot no. […] Catalog no. A2066, Lot no. 019M4777V, Sigma Life Science, St. Louis, MO) overnight at 4 °C. […] Louis, MO) was added followed by incubation in SuperSignal West Dura Extended Duration Substrate (Thermofisher), and Western blots were imaged and analyzed with a Bio-mad imaging system.

[9] = tested on: photoreceptors (outer nuclear layer); test: Photoreceptor survival: ONL thickness in mice with type 3 choroidal NV; format: in vivo, rho/VEGF mice; details: for ONL thickness: Fig 5b, 40 µg, P42, individual eyes
VEGF-induced leukostasis = test: Retinal leukostasis (concanavalin A perfusion); format: in vivo, C57BL/6 mice; details: 40 µg
Protocol: Leukostasis was measured by staining leukocytes with rhodamine- or FITC-labeled conA[52]. […] Vector Labs Thermofisher). The vasculature was flushed for 4 min with PBS to remove residual unbound conn A. […] Retinas were examined by fluorescence microscopy and the number of intravascular leukocytes throughout the entire retina were counted by an investigator masked with respect to treatment group. […] After washing, retinas were incubated in Alexa Fluor 594-conjugated goat anti-rat secondary antibody (1:500; A-11007 Invitrogen) for 1 h at room temperature. Retinas were washed, flat mounted and examined by fluorescence microscopy.

## CCN(CC)CCNC(=O)c1c(C)[nH]c(/C=C2\C(=O)Nc3ccc(F)cc32)c1C [sunitinib, reference compound]
[1]
  vitreous half-life: ~ 2 days
[2]; Fig 2c, intravitreous free sunitinib 0.1µg, 1 week
  CNVsize: 0.01929 mm2 and 0.0114 mm2 and 0.03268 mm2 and 0.02288 mm2 and 0.01524 mm2 and 0.02254 mm2 and 0.02987 mm2 and 0.01948 mm2 and 0.01091 mm2
[2]; Fig 2c, intravitreous free sunitinib 0.5µg, 1 week
  CNVsize: 0.008346 mm2 and 0.0258 mm2 and 0.01396 mm2 and 0.0209 mm2 and 0.02253 mm2 and 0.02124 mm2 and 0.01904 mm2 and 0.01077 mm2 and 0.02107 mm2 and 0.01493 mm2
[2]; intravitreous 0.5 or 0.1 µg free sunitinib, 1 week
  mean area of choroidal NV vs PBS fellow eye: no significant difference; also recorded: no significant reduction
[3]
  cataract: severe cataract
[4]; both sexes, C57BL/6N, mouse, whole eye (globe), other: intravitreous injection, 1 µg, read-out: overall half-life in mouse eyes (converted)
  half-life: ~50.4 h
[4]; day 7, listed as Sunitinib Suspension
  Remaining Drug (Normalized against T0) (%): 10.1%
[4]; day 7, listed as free sunitinib
  Remaining Drug (Normalized against T0) (%): 10.1±0.7%
[4]; day 30, listed as Sunitinib Suspension
  Remaining Drug (Normalized against T0) (%): 8.8%
[4]; day 30, listed as sunitinib drug suspension
  Remaining Drug (Normalized against T0) (%): 9%
[5]; 0.125 days
  Average release (%): 34.3%
[5]; 1 day
  Average release (%): 51.9%
[5]; 3 days
  Average release (%): 68.4%
[5]; 10 days
  Average release (%): 89.0%
[5]; 17 days
  Average release (%): 95.0%
[5]; 24 days
  Average release (%): 99.5%
[5]; 30 days
  Average release (%): 100.0%
[5]; Fig. 1b, open squares
  behaviour in release medium in vitro: rapidly eluted and dissolved in release medium
[6]; at a ratio of <10
  percentage of drug bound to melanin: 96–99.8%
[6]; sunitinib-to-melanin mass ratio 0.001%
  percentage of melanin-bound sunitinib: 99.8%
[6]; sunitinib-to-melanin mass ratio 20%
  percentage of melanin-bound sunitinib: ~ 80%
[7]; pH 1.2–6.8
  solubility in acidic aqueous solutions: high solubility
[7]; pH 7.4
  aqueous solubility: low aqueous solubility

## aflibercept
[8]; Fig 4d, vitreous, 1 week after 40 µg at P28, individual eyes
  Concentrate of Albmin: 0.1634 µg and 0.1282 µg and 0.1305 µg and 0.1935 µg and 0.4253 µg
[8]; P28 rho/VEGF mice, 1 week after intravitreous 40 µg
  mean vitreous albumin concentration vs PBS eyes: significantly less; also recorded: significant reduction
Subretinal NV; P21
  Mean area of sunretinal NV per retina: 0.006443 mm2 and 0.004033 mm2 and 0.006827 mm2 and 0.01579 mm2 and 0.001837 mm2 and 0.02155 mm2 and 0.01187 mm2 and 0.0074 mm2 and 0.009835 mm2 and 0.01142 mm2 and 0.01439 mm2 and 0.004674 mm2
Subretinal NV; P28
  Mean area of sunretinal NV per retina: 0.01232 mm2 and 0.01247 mm2 and 0.01867 mm2 and 0.01277 mm2 and 0.01806 mm2 and 0.01223 mm2 and 0.007648 mm2 and 0.002213 mm2 and 0.009102 mm2
Subretinal NV; P35
  Mean area of sunretinal NV per retina: 0.01325 mm2 and 0.02508 mm2 and 0.02389 mm2 and 0.02314 mm2 and 0.01559 mm2 and 0.02014 mm2 and 0.01286 mm2 and 0.008195 mm2 and 0.01062 mm2 and 0.006501 mm2 and 0.02165 mm2 and 0.01911 mm2 and 0.01968 mm2 and 0.008771 mm2 and 0.02218 mm2 and 0.008675 mm2
Subretinal NV; P42
  Mean area of sunretinal NV per retina: 0.01663 mm2 and 0.008316 mm2 and 0.01691 mm2 and 0.01919 mm2 and 0.01735 mm2 and 0.02425 mm2 and 0.00731 mm2 and 0.02809 mm2 and 0.01595 mm2
Subretinal NV; intravitreous 40 µg
  duration of inhibition of subretinal NV: 1 week
Subretinal NV; intravitreous 40 µg at P14, P21
  mean area of NV per retina vs PBS eyes: significantly less; also recorded: significantly lower
[2]; Fig 2d, intravitreous 40 µg, 1W
  CNVsize: 0.008066 mm2 and 0.009648 mm2 and 0.01333 mm2 and 0.01287 mm2 and 0.01253 mm2 and 0.01268 mm2 and 0.009735 mm2 and 0.0107 mm2
[2]; Fig 2d, intravitreous 40 µg, 9W
  CNVsize: 0.03895 mm2 and 0.02251 mm2 and 0.03758 mm2 and 0.02161 mm2 and 0.01535 mm2 and 0.02051 mm2 and 0.02183 mm2
[2]; Fig 2d, intravitreous 40 µg, 15W, listed as Alfibercept
  CNVsize: 0.02431 mm2 and 0.01432 mm2 and 0.01526 mm2 and 0.01738 mm2 and 0.01801 mm2 and 0.01547 mm2
[2]; intravitreous 40 µg, 1 week after injection
  choroidal NV vs PBS fellow eye: significant suppression; also recorded: significant reduction
Rhodopsin kinase (GRK-1); 40 µg at P14, P49
  rhodopsin kinase/actin ratio vs PBS eyes: no difference
Rhodopsin kinase (GRK-1); Fig 5d, 40 µg, P49, individual retinas
  GRK-1/Actin: 0.8885 and 0.8156 and 1.021 and 0.9707 and 0.8036
[9]; 40 µg at P14, measured at P42
  mean ONL thickness vs PBS eyes: no significant difference
[9]; location I1
  ONL thickness: 0.0549 mm and 0.04725 mm and 0.03173 mm and 0.03578 mm and 0.03893 mm and 0.04095 mm and 0.03375 mm
[9]; location I2
  ONL thickness: 0.0504 mm and 0.04905 mm and 0.03735 mm and 0.04072 mm and 0.04027 mm and 0.05108 mm and 0.0387 mm
[9]; location I3
  ONL thickness: 0.05017 mm and 0.03982 mm and 0.03465 mm and 0.03645 mm and 0.0351 mm and 0.04972 mm and 0.04208 mm
[9]; location S1
  ONL thickness: 0.04253 mm and 0.0441 mm and 0.03465 mm and 0.0414 mm and 0.04478 mm and 0.04545 mm
[9]; location S2
  ONL thickness: 0.04208 mm and 0.05085 mm and 0.0423 mm and 0.04275 mm and 0.04905 mm and 0.03982 mm and 0.0504 mm
[9]; location S3
  ONL thickness: 0.04163 mm and 0.0486 mm and 0.03825 mm and 0.04095 mm and 0.04455 mm and 0.03915 mm and 0.0495 mm
VEGF-induced leukostasis; 200 ng VEGF one week later, 24 h
  mean number of adherent intravascular leukocytes vs PBS eyes: significant reduction
VEGF-induced leukostasis; Fig 6a, individual retinas
  Intravascular leukocytes per retina: 51 and 28 and 33 and 20 and 18 and 23 and 44 and 54
